The source of these data is patent publication US20260109694A1, “HETEROCYCLIC COMPOUNDS AND USES THEREOF” (Kumquat Biosciences Inc., priority 2023, published 2026).

For assay [1], the target named is T1, PTP1B (Homo sapiens, UniProt P18031).
T1 sequence (P18031 1-435): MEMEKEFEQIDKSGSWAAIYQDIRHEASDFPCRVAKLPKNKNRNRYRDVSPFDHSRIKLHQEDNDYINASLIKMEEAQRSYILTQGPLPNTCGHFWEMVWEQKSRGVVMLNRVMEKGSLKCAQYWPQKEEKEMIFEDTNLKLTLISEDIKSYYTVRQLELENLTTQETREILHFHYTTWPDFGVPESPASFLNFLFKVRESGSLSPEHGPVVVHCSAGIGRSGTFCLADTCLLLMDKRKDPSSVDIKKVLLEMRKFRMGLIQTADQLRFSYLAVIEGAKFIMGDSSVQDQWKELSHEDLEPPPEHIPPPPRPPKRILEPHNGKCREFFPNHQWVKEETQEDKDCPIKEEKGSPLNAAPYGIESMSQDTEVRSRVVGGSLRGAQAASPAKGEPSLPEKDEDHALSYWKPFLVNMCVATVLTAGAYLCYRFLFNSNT
Nature of the assay: Phosphatase activity assay (DiFMUP substrate). Particulars: value bin printed in column head. Type of assay: biochemical. Here is the method: (§1) The selectivity and potency of a small molecule PTPN2 inhibitor as provided herein against one or more protein tyrosine phosphatase (PTP) enzymes, and specifically against PTPN2, is assessed in various ways. The one or more PTP enzymes comprise Mycobacterium protein tyrosine phosphatase A (mPTPA), Mycobacterium protein tyrosine phosphatase B (mPTPB), PTPN1 (i.e., PTP1B), PTPN2 (i.e., TC-PTP), PTPN22 (i.e., LYP), SHP-1, SHP-2, FAP-1, Meg2, HePTP, Laforin, VHX, VHR, LMWPTP, Cdc14A, LAR, CD45, PTPRG, a fragment thereof, a variant thereof, and a combination thereof. Selectivity and potency of a small molecule PTPN2 inhibitor is evaluated using a PTP activity inhibition assay. The assay is performed using a buffer comprising 50 mM HEPES buffer pH 7.5, 150 mM NaCl, 0.5 mM EDTA, 1 mM DTT, 0.001% Tween-20.
(§2) The assay is performed using a phosphated substrate, e.g., 10 mM 6,8-Difluoro-4-Methylumbelliferyl Phosphate (DIFMUP) that is stored at −20° C. Alternatively or in addition to, the assay is performed using other phosphated substrate (e.g., fluorescein diphosphate). Each PTP enzyme is diluted in the assay buffer
(§3) The assay can be carried out at room temperature in multiplate format, e.g., using 384 well plates. A small molecule PTPN2 inhibitor dissolved in DMSO at one of 10 concentrations from a serial dilution or DMSO alone for control is added to each well. A mixture of the assay buffer comprising PTP enzyme (e.g., 0.025 ng/ul PTPN2) is added to each well and mixed for approximately 2 minutes. The reaction is initiated by adding DiFMUP diluted in the assay buffer to a final concentration of approximately 45 µM DiFMUP in PTPN2 assay. For each PTP enzyme, DiFMUP is added at the Km (Michaelis constant) of the enzyme that had been independently determined. The phosphatase activity of the PTP enzyme is assessed by monitoring appearance of a fluorescent product (6,8-difluoro-7-hydroxyl-4-coumarin (DiFMU) from DiFMUP) continuously for about 15 to 30 minutes, using the INFINITE M1000Pro plate reader (Tecan) with excitation at 360 nm and emission at 450 nm (cutoff filter at 435 nm) for DiFMU. Each assay is performed at least in duplicate. The rate (e.g., the initial rate) of DiFMU formation is plotted against the concentration of the small molecule PTPN2 inhibitor, and the data is fitted (e.g., using a 4-parameter equation) to determine the inflection point of the fit as the IC50 of the small molecule PTPN2 inhibitor for a specific enzyme. Utilizing this assay, the ability of the compounds in Table 1 to inhibit PTPN2 and PTP1B has been assessed. Table 3 summarizes the IC50 values.

The target in assay [2] is T2, PTPN2 (Homo sapiens, UniProt P17706).
T2 sequence (P17706 1-415): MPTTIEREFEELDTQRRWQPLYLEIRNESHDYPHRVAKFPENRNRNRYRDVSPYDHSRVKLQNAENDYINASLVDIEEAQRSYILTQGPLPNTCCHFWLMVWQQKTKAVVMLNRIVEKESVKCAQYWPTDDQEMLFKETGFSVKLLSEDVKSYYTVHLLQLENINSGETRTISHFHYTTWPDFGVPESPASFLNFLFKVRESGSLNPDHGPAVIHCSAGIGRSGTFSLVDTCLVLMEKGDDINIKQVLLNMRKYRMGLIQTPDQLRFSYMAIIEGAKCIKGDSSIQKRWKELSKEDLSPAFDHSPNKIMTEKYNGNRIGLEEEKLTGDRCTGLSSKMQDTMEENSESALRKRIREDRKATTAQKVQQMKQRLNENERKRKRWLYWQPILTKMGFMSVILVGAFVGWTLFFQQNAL
Kind of assay: Phosphatase activity assay (DiFMUP substrate). Type of assay: biochemical. The settings on record: value bin printed in column head. How it is done: as §1, §2, §3

Broadly, the IC50 is the point on the concentration scale where inhibition reaches its midpoint.

With `CC(C)CC[C@H]1C=C(c2ccc(O)c(N3CC(=O)NS3(=O)=O)c2F)CN1C(=O)O[C@H](C)OC(=O)C1CCCC1` [Compound 159, (R)-1-((cyclopentanecarbonyl)oxy)ethyl (S)-4-(3-(1,1-dioxido-4-oxo-1,2,5-thiadiazolidin-2-yl)-2-fluoro-4-hydroxyphenyl)-2-isopentyl-2,5-dihydro-1H-pyrrole-1-carboxylate], the results for the IC50 in assay [1] and in assay [2] were at most 1000 nM and above 1000 nM, respectively.

For `O=C1CN(c2c(O)ccc(C3=C[C@@H](C=CC4CC4)NC3)c2F)S(=O)(=O)N1` (single isomer, unassigned) [Compound 102, (R,E)-5-(3-(5-(2-cyclopropylvinyl)-2,5-dihydro-1H-pyrrol-3-yl)-2-fluoro-6-hydroxyphenyl)-1,2,5-thiadiazolidin-3-one 1,1-dioxide or (R,Z)-5-(3-(5-(2-cyclopropylvinyl)-2,5-dihydro-1H-pyrrol-3-yl)-2-fluoro-6-hydroxyphenyl)-1,2,5-thiadiazolidin-3-one 1,1-dioxide], the 50% inhibitory concentration (IC50) in assay [1] and in assay [2] was at most 1000 nM in each case.

In the case of `O=C1CN(c2c(O)ccc(C3=CC(CO)CC3)c2F)S(=O)(=O)N1` (stereo not shown) [Compound 131, 5-(2-fluoro-6-hydroxy-3-(3-(hydroxymethyl)cyclopent-1-en-1-yl)phenyl)-1,2,5-thiadiazolidin-3-one 1,1-dioxide], the IC50 in assay [1] and in assay [2] was at most 1000 nM in each case.

`CC(C)CC[C@H]1C=C(c2ccc(O)c(N3CC(=O)NS3(=O)=O)c2F)CN1C(=O)OC(C)OC(=O)C(C)C` (stereo partly drawn) [Compound 165, 1-(isobutyryloxy)ethyl (2S)-4-(3-(1,1-dioxido-4-oxo-1,2,5-thiadiazolidin-2-yl)-2-fluoro-4-hydroxyphenyl)-2-isopentyl-2,5-dihydro-1H-pyrrole-1-carboxylate]: the IC50 in assay [1] and in assay [2] was at most 1000 nM in each case.

As for `CC(C)CC[C@H]1C=C(c2ccc(O)c(N3CC(=O)NS3(=O)=O)c2F)CN1C(=O)OC(OC(=O)[C@H](N)C(C)C)C(C)C` (stereo partly drawn) [Compound 146, 1-((D-valyl)oxy)-2-methylpropyl (2S)-4-(3-(1,1-dioxido-4-oxo-1,2,5-thiadiazolidin-2-yl)-2-fluoro-4-hydroxyphenyl)-2-isopentyl-2,5-dihydro-1H-pyrrole-1-carboxylate], the IC50 in assay [1] and in assay [2] was at most 1000 nM throughout.

As to `CC(C)CC[C@H]1C=C(c2ccc(O)c(N3CC(=O)NS3(=O)=O)c2F)CN1C(=O)O[C@@H](C)OC(=O)C(C)C` [Compound 154, (S)-1-(isobutyryloxy)ethyl (S)-4-(3-(1,1-dioxido-4-oxo-1,2,5-thiadiazolidin-2-yl)-2-fluoro-4-hydroxyphenyl)-2-isopentyl-2,5-dihydro-1H-pyrrole-1-carboxylate], the IC50 in assay [1] and in assay [2] was at most 1000 nM each time.

Turning to `CC1(C2C=C(c3ccc(O)c(N4CC(=O)NS4(=O)=O)c3F)CN2)CC1` (stereo not shown) [Compound 108, 5-(2-fluoro-6-hydroxy-3-(5-(1-methylcyclopropyl)-2,5-dihydro-1H-pyrrol-3-yl)phenyl)-1,2,5-thiadiazolidin-3-one 1,1-dioxide], the IC50 is above 1000 nM in assay [1] and at most 1000 nM in assay [2].

`O=C1CN(c2c(O)cc(C3CCCNC3)cc2F)S(=O)(=O)N1` (stereo not shown) [Compound 138, 5-(2-fluoro-6-hydroxy-4-(piperidin-3-yl)phenyl)-1,2,5-thiadiazolidin-3-one 1,1-dioxide]: the IC50 in assay [1] and in assay [2] was at most 1000 nM each time.

For `CC(OC(=O)C1CCCC1)OC(=O)N1CC(c2ccc(O)c(N3CC(=O)NS3(=O)=O)c2F)=C[C@H]1CCC1CCC1` (stereo partly drawn) [Compound 163, 1-((cyclopentanecarbonyl)oxy)ethyl (2R)-2-(2-cyclobutylethyl)-4-(3-(1,1-dioxido-4-oxo-1,2,5-thiadiazolidin-2-yl)-2-fluoro-4-hydroxyphenyl)-2,5-dihydro-1H-pyrrole-1-carboxylate], the IC50 in assay [1] and in assay [2] was at most 1000 nM throughout.

`O=C1CN(c2c(O)cc(C3=CC(CCC4CC4)NC3)cc2F)S(=O)(=O)N1` (stereo not shown) [Compound 105, 5-(4-(5-(2-cyclopropylethyl)-2,5-dihydro-1H-pyrrol-3-yl)-2-fluoro-6-hydroxyphenyl)-1,2,5-thiadiazolidin-3-one 1,1-dioxide]: the half-maximal inhibitory concentration (IC50) in assay [1] and in assay [2] was at most 1000 nM each time.

On to `O=C1CN(c2c(O)ccc(CC3CCNC3)c2F)S(=O)(=O)N1` (stereo not shown) [Compound 141, 5-(2-fluoro-6-hydroxy-3-(pyrrolidin-3-ylmethyl)phenyl)-1,2,5-thiadiazolidin-3-one 1,1-dioxide], for which the half-maximal inhibitory concentration (IC50) in assay [1] and in assay [2] was at most 1000 nM each time.

Take `O=C1CN(c2c(O)cc(C3=CCNC3)cc2F)S(=O)(=O)N1` [Compound 128, 5-(4-(2,5-dihydro-1H-pyrrol-3-yl)-2-fluoro-6-hydroxyphenyl)-1,2,5-thiadiazolidin-3-one 1,1-dioxide]: the IC50 in assay [1] and in assay [2] was at most 1000 nM throughout.

Take `CC(C)C(=O)O[C@@H](C)OC(=O)N1CC(c2ccc(O)c(N3CC(=O)NS3(=O)=O)c2F)=C[C@H]1CCC1CC1` [Compound 143, (R)-1-(isobutyryloxy)ethyl (R)-2-(2-cyclopropylethyl)-4-(3-(1,1-dioxido-4-oxo-1,2,5-thiadiazolidin-2-yl)-2-fluoro-4-hydroxyphenyl)-2,5-dihydro-1H-pyrrole-1-carboxylate]: the IC50 in assay [1] and in assay [2] was at most 1000 nM each time.

As for `CC(OC(=O)C(C)C)OC(=O)N1CC(c2ccc(O)c(N3CC(=O)NS3(=O)=O)c2F)=C[C@H]1CCC1CCC1` (stereo partly drawn) [Compound 156, 1-(isobutyryloxy)ethyl (2R)-2-(2-cyclobutylethyl)-4-(3-(1,1-dioxido-4-oxo-1,2,5-thiadiazolidin-2-yl)-2-fluoro-4-hydroxyphenyl)-2,5-dihydro-1H-pyrrole-1-carboxylate], the IC50 in assay [1] and in assay [2] was at most 1000 nM each time.

For `CC1CC1C1C=C(c2ccc(O)c(N3CC(=O)NS3(=O)=O)c2F)CN1` (stereo not shown) [Compound 117, 5-(2-fluoro-6-hydroxy-3-(5-(2-methylcyclopropyl)-2,5-dihydro-1H-pyrrol-3-yl)phenyl)-1,2,5-thiadiazolidin-3-one 1,1-dioxide], the IC50 in assay [1] and in assay [2] was at most 1000 nM throughout.

Regarding `CC1(CCC2C=C(c3ccc(O)c(N4CC(=O)NS4(=O)=O)c3F)CN2)CC1` (stereo not shown) [Compound 104, 5-(2-fluoro-6-hydroxy-3-(5-(2-(1-methylcyclopropyl)ethyl)-2,5-dihydro-1H-pyrrol-3-yl)phenyl)-1,2,5-thiadiazolidin-3-one 1,1-dioxide], the IC50 in assay [1] and in assay [2] was at most 1000 nM in each case.

Consider `CCC[C@H]1C=C(c2ccc(O)c(N3CC(=O)NS3(=O)=O)c2F)CN1` [Compound 129, (S)-5-(2-fluoro-6-hydroxy-3-(5-propyl-2,5-dihydro-1H-pyrrol-3-yl)phenyl)-1,2,5-thiadiazolidin-3-one 1,1-dioxide], for which the IC50 in assay [1] and in assay [2] was at most 1000 nM each time.
